Experimental data: patent US20240002362A1, “DEUTERATED 2-ARYLHETEROCYCLE-3-OXO-2,3- DIHYDROPYRIDAZINE-4-CARBOXAMIDE INHIBITOR AND PREPARATION METHOD THEREFOR AND APPLICATION THEREOF” (Shanghai Zelgen Pharma. Tech Co., Ltd., priority 2020, published 2024)

How the values were obtained:
Assay type in all cases: in vivo
[1] = Pharmacokinetic test and evaluation in rats; conditions: rat, po; male SD rats, gavage 2 mg/kg, plasma, n = 4, mean
Procedure: Pharmacokinetic Test and Evaluation in Rats
(§1) After male SD rats weighing about 220 g were fasted overnight, the rats were gavaged with 2 mg/kg of a solution of the compound of the present invention [CMC/TW80 as a carrier]. Blood was collected 0.5, 1.0, 2.0, 4.0, 6.0, 8.0, 12 and 24 h after the administration of the compound of the present invention, respectively, and the concentration of the compound of the present invention in plasma was determined by LC/MS/MS.

[2] = Pharmacokinetic test and evaluation in mice; conditions: mouse, po; male ICR mice, gavage 2 mg/kg, plasma, n = 4, mean
Procedure: Pharmacokinetic Test and Evaluation in Mice
as §1, with “ICR mice” for “SD rats”, “20-30” for “220”, “mice” for “rats”

[3] = Pharmacokinetic test and evaluation in beagle dogs; conditions: dog, po; male beagle dogs, gavage 2 mg/kg, plasma, n = 4, mean
Procedure: Pharmacokinetic Test and Evaluation in Beagle Dogs
as §1, with “beagle dogs” for “SD rats”, “6-7 Kg” for “220 g”, “beagle dogs” for “rats”

[4] = tested on: mouse colon cancer cells CT26.WT; experiment: Pharmacodynamic test of anti-tumor activity, subcutaneous transplantation cancer model CT26.WT; conditions: CT26.WT subcutaneous in nude mice; for TV (mm^3) (Tumor Volume) Day 0: Day 0 (baseline at grouping), 30 mg/Kg daily gavage; for % TGI (Tumor Growth Inhibition) / TV (mm^3) (Tumor Volume) Day 17: Day 17, 30 mg/Kg daily gavage
Procedure: Pharmacodynamic Test and Evaluation of Anti-Tumor Activity
1. Subcutaneous Transplantation Cancer Model CT26.WT
5×10^5/100 uL of mouse colon cancer cells CT26.WT were subcutaneously inoculated into the right back of nude mice. The mice were monitored daily for health condition, and the measurement was started when tumors grew to be palpable. The tumor volume was calculated by adopting the following formula: 0.5×L×W^2, wherein L and W represent tumor length and width, respectively. When the tumor grew to about 50 mm^3, the mice were randomly grouped. The mice were gavaged daily with a solution of the compound at a corresponding dose (30 mg/Kg) [CMC/TW80 as a carrier], and at the same time, the general state of the mice was monitored. After the administration was started, the mice were weighed twice in the first week, and the tumor volume was measured twice; from the second week, the mice were weighed three times a week, and the tumor volume was measured three times.

Compound	AUC(0-t) [1] [ng·h/mL]	Cmax [1] [ng/mL]	AUC(0-t) [2] [ng·h/mL]	Cmax [2] [ng/mL]	AUC(0-t) [3] [ng·h/mL]	Cmax [3] [ng/mL]	TV (mm^3) (Tumor Volume) Day 0 [4]	% TGI (Tumor Growth Inhibition) [4] [%]	TV (mm^3) (Tumor Volume) Day 17 [4]
C[C@@H](CO)NC(=O)c1cc(-c2ccc(Cl)cc2)nn(-c2cnn(C)c2)c1=O [BAY-2416964, reference compound]	624	99.5	1490	348	995	211	55.81	24.7	1670.91
[2H]C([2H])([2H])n1cc(-n2nc(-c3ccc(Cl)cc3)cc(C(=O)N[C@@H](C)CO)c2=O)cn1 [Example 2, (S)-6-(4-chlorophenyl)-N-(1-hydroxypropan-2-yl)-2-(1-(methyl-d3)-1H-pyrazole-4-yl)-3-oxo-2,3-dihydropyridazine-4-carboxamide]	990	146	850	241	–	–	–	–	–
[2H]C([2H])(O)[C@H](C)NC(=O)c1cc(-c2ccc(Cl)cc2)nn(-c2cnn(C)c2)c1=O [Example 7, (S)-6-(4-chlorophenyl)-N-(1-hydroxypropan-2-yl-1,1-d2)-2-(1-methyl-1H-pyrazole-4-yl)-3-oxo-2,3-dihydropyridazine-4-carboxamide]	736	96.6	2460	351	–	–	–	–	–
[2H]C([2H])(O)[C@H](C)NC(=O)c1cc(-c2ccc(Cl)cc2)nn(-c2cnn(C([2H])([2H])[2H])c2)c1=O [Example 8, (S)-6-(4-chlorophenyl)-N-(1-hydroxypropan-2-yl-1,1-d2)-2-(1-(methyl-d3)-1H-pyrazole-4-yl)-3-oxo-2,3-dihydropyridazine-4-carboxamide]	1390	230	2620	351	1880	294	55.68	50.5	1117.93
